Legend:
Experiment in all cases: Greenhouse herbicidal activity assay, post-emergence
Format in all cases: in vivo
[1] = tested on: Cyperus iria; settings: Post-emergence test, rate 150 g a.i./hm^2, grade by fresh weight inhibition rate; for pest or weed control at 150 g/ha: Cyperus iria, read-out: Control efficacy grade, Cyperus iria
Summary of the method: (§1)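 Letter grades (A: ≥80% to 100%; C: ≥40% to <60%; E: <20%) express fresh weight inhibition recorded 14-21 days post-spray. Weeds were treated on the leaves once they reached 3-6 leaves in chamber-grown pots, allowed to dry naturally, then kept in the chamber.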

[2] = tested on: Eclipta prostrata; settings: Post-emergence test, rate 150 g a.i./hm^2, grade by fresh weight inhibition rate; for pest or weed control at 150 g/ha: Eclipta prostrata, read-out: Control efficacy grade, Eclipta prostrata
Summary of the method: as §1

[3] = tested on: Digitaria sanguinalis; settings: Post-emergence test, rate 150 g a.i./hm^2, grade by fresh weight inhibition rate; for pest or weed control at 150 g/ha: Digitaria sanguinalis, read-out: Control efficacy grade, Digitaria sanguinalis
Summary of the method: as §1

[4] = tested on: Echinochloa crusgalli; settings: Post-emergence test, rate 150 g a.i./hm^2, grade by fresh weight inhibition rate; for pest or weed control at 150 g/ha: Echinochloa crus-galli, read-out: Control efficacy grade, Echinochloa crusgalli
Summary of the method: as §1

[5] = tested on: Leptochloa chinensis; settings: Post-emergence test, rate 150 g a.i./hm^2, grade by fresh weight inhibition rate; for pest or weed control at 150 g/ha: Dinebra chinensis, read-out: Control efficacy grade, Leptochloa chinensis
Summary of the method: as §1

Structure (SMILES) | pest or weed control at 150 g/ha [1] [%] | pest or weed control at 150 g/ha [2] [%] | pest or weed control at 150 g/ha [3] [%] | pest or weed control at 150 g/ha [4] [%] | pest or weed control at 150 g/ha [5] [%] | Control efficacy grade, Cyperus iria [1] | Control efficacy grade, Eclipta prostrata [2] | Control efficacy grade, Digitaria sanguinalis [3] | Control efficacy grade, Echinochloa crusgalli [4] | Control efficacy grade, Leptochloa chinensis [5]
Cc1nnc(NC(=O)c2ccc(S(C)(=O)=O)c([S+]([O-])C(C)C)c2Cl)o1 (stereo not drawn) [Compound 3-7, 2-chloro-3-(isopropylsulfinyl)-N-(5-methyl-1,3,4-oxadiazol-2-yl)-4-(methylsulfonyl)benzamide] | 80 to 100 | 80 to 100 | 80 to 100 | 80 to 100 | 80 to 100 | – | – | – | – | –
Cc1nnc(NC(=O)c2ccc(S(C)(=O)=O)c(SCC(F)F)c2Cl)o1 [Compound 3-102] | – | – | – | – | – | A (Fresh weight inhibition rate≥80% to 100%) | A (Fresh weight inhibition rate≥80% to 100%) | A (Fresh weight inhibition rate≥80% to 100%) | A (Fresh weight inhibition rate≥80% to 100%) | A (Fresh weight inhibition rate≥80% to 100%)
CS(=O)(=O)c1ccc(C(=O)Nc2nnco2)c(Cl)c1SC1CCCCC1 [Compound 3-318] | – | – | – | – | – | A (Fresh weight inhibition rate≥80% to 100%) | A (Fresh weight inhibition rate≥80% to 100%) | A (Fresh weight inhibition rate≥80% to 100%) | A (Fresh weight inhibition rate≥80% to 100%) | A (Fresh weight inhibition rate≥80% to 100%)
CCC[S+]([O-])c1c(S(C)(=O)=O)ccc(C(=O)Nc2nnc(C(C)C)o2)c1Cl (stereo not drawn) [Compound 3-500, 2-chloro-N-(5-isopropyl-1,3,4-oxadiazol-2-yl)-4-(methylsulfonyl)-3-(propylsulfinyl)benzamide] | 80 to 100 | 80 to 100 | 80 to 100 | 80 to 100 | 80 to 100 | – | – | – | – | –
Cn1nnnc1NC(=O)c1ccc(S(C)(=O)=O)c([S+]([O-])CC(F)F)c1Cl (racemic) [Compound 1-58] | – | – | – | – | – | B (Fresh weight inhibition rate≥260% to <80%) | A (Fresh weight inhibition rate≥80% to 100%) | A (Fresh weight inhibition rate≥80% to 100%) | A (Fresh weight inhibition rate≥80% to 100%) | A (Fresh weight inhibition rate≥80% to 100%)
CS(=O)(=O)c1ccc(C(=O)Nc2nnco2)c(Cl)c1[S+]([O-])CC(F)(F)F (racemic) [Compound 3-324] | – | – | – | – | – | A (Fresh weight inhibition rate≥80% to 100%) | A (Fresh weight inhibition rate≥80% to 100%) | A (Fresh weight inhibition rate≥80% to 100%) | A (Fresh weight inhibition rate≥80% to 100%) | A (Fresh weight inhibition rate≥80% to 100%)
Cc1nnc(NC(=O)c2ccc(S(C)(=O)=O)c([S+]([O-])CC(F)(F)F)c2Cl)o1 (racemic) [Compound 3-98] | – | – | – | – | – | A (Fresh weight inhibition rate≥80% to 100%) | A (Fresh weight inhibition rate≥80% to 100%) | A (Fresh weight inhibition rate≥80% to 100%) | A (Fresh weight inhibition rate≥80% to 100%) | A (Fresh weight inhibition rate≥80% to 100%)
Cc1nnc(NC(=O)c2ccc(S(C)(=O)=O)c(SC3CCCC3)c2Cl)o1 [Compound 3-87] | – | – | – | – | – | A (Fresh weight inhibition rate≥80% to 100%) | A (Fresh weight inhibition rate≥80% to 100%) | A (Fresh weight inhibition rate≥80% to 100%) | A (Fresh weight inhibition rate≥80% to 100%) | A (Fresh weight inhibition rate≥80% to 100%)
CCCSc1c(S(C)(=O)=O)ccc(C(=O)Nc2nnc(C)o2)c1Cl [Compound 3-1] | – | – | – | – | – | A (Fresh weight inhibition rate≥80% to 100%) | A (Fresh weight inhibition rate≥80% to 100%) | A (Fresh weight inhibition rate≥80% to 100%) | A (Fresh weight inhibition rate≥80% to 100%) | A (Fresh weight inhibition rate≥80% to 100%)
CS(=O)(=O)c1ccc(C(=O)Nc2nnco2)c(Cl)c1[S+]([O-])CC1CC1 (racemic) [Compound 3-299] | – | – | – | – | – | A (Fresh weight inhibition rate≥80% to 100%) | A (Fresh weight inhibition rate≥80% to 100%) | A (Fresh weight inhibition rate≥80% to 100%) | A (Fresh weight inhibition rate≥80% to 100%) | A (Fresh weight inhibition rate≥80% to 100%)
CCC[S+]([O-])c1c(S(C)(=O)=O)ccc(C(=O)Nc2nnco2)c1Cl (stereo not drawn) [Compound 3-268, 2-chloro-4-(methylsulfonyl)-N-(1,3,4-oxadiazol-2-yl)-3-(propylsulfinyl)benzamide] | 80 to 100 | 80 to 100 | 80 to 100 | 80 to 100 | 80 to 100 | – | – | – | – | –
CCc1nnc(NC(=O)c2ccc(S(C)(=O)=O)c(SC3CC3)c2Cl)o1 [Compound 3-419] | – | – | – | – | – | A (Fresh weight inhibition rate≥80% to 100%) | A (Fresh weight inhibition rate≥80% to 100%) | A (Fresh weight inhibition rate≥80% to 100%) | A (Fresh weight inhibition rate≥80% to 100%) | A (Fresh weight inhibition rate≥80% to 100%)
CCCC[S+]([O-])c1c(S(C)(=O)=O)ccc(C(=O)Nc2nnc(CC)o2)c1Cl (racemic) [Compound 3-394] | – | – | – | – | – | A (Fresh weight inhibition rate≥80% to 100%) | A (Fresh weight inhibition rate≥80% to 100%) | A (Fresh weight inhibition rate≥80% to 100%) | A (Fresh weight inhibition rate≥80% to 100%) | A (Fresh weight inhibition rate≥80% to 100%)
C=CC[S+]([O-])c1c(S(C)(=O)=O)ccc(C(=O)Nc2ncnn2C)c1Cl (racemic) [Compound 2-68] | – | – | – | – | – | A (Fresh weight inhibition rate≥80% to 100%) | A (Fresh weight inhibition rate≥80% to 100%) | A (Fresh weight inhibition rate≥80% to 100%) | A (Fresh weight inhibition rate≥80% to 100%) | A (Fresh weight inhibition rate≥80% to 100%)
CCc1nnc(NC(=O)c2ccc(S(C)(=O)=O)c([S+]([O-])CC(F)(F)F)c2Cl)o1 (racemic) [Compound 3-440] | – | – | – | – | – | A (Fresh weight inhibition rate≥80% to 100%) | A (Fresh weight inhibition rate≥80% to 100%) | A (Fresh weight inhibition rate≥80% to 100%) | A (Fresh weight inhibition rate≥80% to 100%) | A (Fresh weight inhibition rate≥80% to 100%)

From patent US20250223268A1, “4-Methylsulfonylbenzamide Compound, Preparation Method, Herbicidal Composition And Use” (Jiangsu Flag Chemical Industry Co., Ltd., priority 2022, published 2025)
